Tests used:
Trypanosoma cruzi [1] = experiment: GSK_TCAKS: pIC50 Trypanosoma cruzi viability assay using beta-GAL activity. This assay was run at single shot at 5uM compound concentration per well. The biological reagents consisted of NIH-3T3 host cells and trypomastigotes parasitic cells; both cell types were set to a 3.3 * 10^5 cells/mL dilution in assay DMEM by means of a CASY cell counter device using a 60um capillary. 6 uL of the mixture were dispensed per well (about 1 * 10^3 host-cells and 1 * 10^3 parasites) with a Multidrop Combi dispenser. […] In all wells, the percentage of DMSO never exceeded 0.5%. Plates incubated for four days at 37C, 5% CO2. The substrate used for the assay fluorescence intensity (FLINT) readout was resorufin-beta-D-galactopiranoside (Sigma-Aldrich) at 5uM per well. It was diluted in PBS supplemented with the soft detergent Igepal (Fluka).; format: functional, organism-based, Mus musculus; settings: Tulahuen, NIH3T3
Trypanosoma cruzi [2] = experiment: (§1) GSK_TCAKS: pIC50 Trypanosoma cruzi Imaging: Infected Cells. […] Cells were then washed once with PBS before infection. T. cruzi trypomastigotes, collected at days 5 to 8 after infection from LLC-MK2 parasite infected cultures, were allowed to swim out for 4h at 37C from a centrifuged pellet (2,500 rpm/10 min/room temperature). Trypomastigotes were then collected and counted in a CASY Cell Counter. Trypomastigotes, in supplemented DMEM, were added to H9c2 cultures in a multiplicity of infection of 1 and incubated for 18 h. Cells were washed once with PBS before incubation of the infected H9c2 monolayer with trypsin (Life-Technologies) to detach cells from the flask. Cells were counted in a CASY Cell Counter using a 150 um capillary and their density set at 5 * 10^4 cells per mL in supplemented assay DMEM. Infected H9c2 were dispensed into 384-well poly-lysine coated assay plates at 50uL per well using a Multidrop Combi dispenser. After seeding them, the plates were incubated at 37C, 5% CO2 for 72h. Cultures were then fixed and stained by addition of 50 uL of a solution containing 8% formaldehyde and 4 uM DRAQ5 DNA dye (BioStatus, UK) per well. […] Five images were collected per well for reliable statistical analysis. Automated image analysis was performed with a script developed on Acapella High Content Imaging and Analysis Software (PerkinElmer). Output: percentage of infected cells per well as a second infection marker.; format: functional, organism-based, Rattus norvegicus; settings: H9c2, 4 h
Trypanosoma cruzi [3] = experiment: GSK_TCAKS: pIC50 Trypanosoma cruzi Imaging: Amastigotes/Cell. […] Cells were then washed once with PBS before infection. T. cruzi trypomastigotes, collected at days 5 to 8 after infection from LLC-MK2 parasite infected cultures, were allowed to swim out for 4h at 37C from a centrifuged pellet (2,500 rpm/10 min/room temperature). Trypomastigotes were then collected and counted in a CASY Cell Counter. Trypomastigotes, in supplemented DMEM, were added to H9c2 cultures in a multiplicity of infection of 1 and incubated for 18 h. Cells were washed once with PBS before incubation of the infected H9c2 monolayer with trypsin (Life-Technologies) to detach cells from the flask. Cells were counted in a CASY Cell Counter using a 150 um capillary and their density set at 5 * 10^4 cells per mL in supplemented assay DMEM. Infected H9c2 were dispensed into 384-well poly-lysine coated assay plates at 50uL per well using a Multidrop Combi dispenser. After seeding them, the plates were incubated at 37C, 5% CO2 for 72h. Cultures were then fixed and stained by addition of 50 uL of a solution containing 8% formaldehyde and 4 uM DRAQ5 DNA dye (BioStatus, UK) per well. […] Five images were collected per well for reliable statistical analysis. Automated image analysis was performed with a script developed on Acapella High Content Imaging and Analysis Software (PerkinElmer). Output: number of amastigotes per cell as infection level measurement.; format: functional, organism-based, Rattus norvegicus; settings: H9c2, 4 h
Trypanosoma cruzi [4] = experiment: as §1, with “H2C9” for “Trypanosoma cruzi”, “H9c2 Host Cardiomyocytes.” for “Infected Cells.”, “Number” for “percentage”, “H9c2 Host Cardiomyocytes nuclei to determine drug-related cytotoxicity.” for “infected cells per well as a second infection marker.”; format: functional, organism-based, Rattus norvegicus; settings: H9c2, 4 h
Leishmania donovani [5] = experiment: GSK_TCAKS: pIC50 Leishmania donovani viability assay using fluorescence intensity. Assay plates (1536-well) were prepared by adding 30nL per well of compound. For single shot assay, the final compound concentration was 5uM. […] Briefly, eGFP LdBOB axenic amastigotes were harvested, fixed and counted in a CASY cell counter (Roche-Applied Science). A final concentration of 1.5 * 10^5 cells per well were prepared in amastigote media containing 500 U/mL penicillin/streptomycin (Invitrogen) and 6uL was dispensed to each experimental well using a Multidrop Combi dispenser (Thermo Scientific). 6uL of assay media was dispensed to control columns used as reference for 100% compound response. Following incubation for 72 h at 37C, 5% CO2, 2 uL of resazurin was added to each well at a final concentration of 0.5 mM in phosphate buffered saline (PBS) with IGEPAL (Sigma-Aldrich), 0.05% (v/v).; format: functional, organism-based
Leishmania donovani [6] = experiment: GSK_TCAKS: pIC50 Leishmania donovani Imaging: Infected Macrophages. Assay plates (384-well) were prepared by adding 250nL of compound to each well. For single shot assay, the final compound concentration was 5 uM. […] Automated image analysis was performed with a script developed on Acapella High Content Imaging and Analysis Software (PerkinElmer). Output: Percent of infected macrophage cells were reported for each well.; format: functional, organism-based, Homo sapiens; settings: THP-1
Leishmania donovani [7] = experiment: GSK_TCAKS: pIC50 Leishmania donovani Imaging: Amastigotes/Macrophages. Assay plates (384-well) were prepared by adding 250nL of compound to each well. For single shot assay, the final compound concentration was 5 uM. […] Automated image analysis was performed with a script developed on Acapella High Content Imaging and Analysis Software (PerkinElmer). Output: Average number of amastigotes per macrophage cell were reported for each well.; format: functional, organism-based, Homo sapiens; settings: THP-1
Leishmania donovani [8] = experiment: GSK_TCAKS: pIC50 Leishmania donovani Imaging: THP-1 Host Macrophages. Assay plates (384-well) were prepared by adding 250nL of compound to each well. For single shot assay, the final compound concentration was 5 uM. […] Automated image analysis was performed with a script developed on Acapella High Content Imaging and Analysis Software (PerkinElmer). Output: THP-1 cell count were reported for each well.; format: functional, organism-based, Homo sapiens
[9] = test system: Trypanosoma brucei brucei; experiment: GSK_TCAKS: pIC50 Trypanosoma brucei viability assay using fluorescence intensity. Assay plates (1536-well) were prepared by dispensing 25nL of compound solution per well using an Echo acoustic dispenser (Labcyte).; format: functional, organism-based; settings: Lister 427, 2 h
[10] = test system: Trypanosoma brucei brucei; experiment: GSK_TCAKS: pIC50 Trypanosoma brucei viability assay using luminiscence. Assay plates (1536-well) were prepared. T. brucei cultures were harvested and counted in a CASY cell counter. A parasite suspension was prepared at a final concentration of 5 * 10^4 cells/mL in complete HMI9 medium and 6uL was dispensed to all wells containing compounds using a Multidrop Combi dispenser. 6uL of HMI9 media with 0.4% DMSO were dispensed to control columns. Plates were incubated for 24 h at 37C, 5% CO2 then tempered for 10 min at room temperature. ATP content was quantified by adding 4 uL of CellTiter-Glo Reagent (Promega) according to the manufacturer's instructions. Luminescence was measured using a ViewLux.; format: functional, organism-based; settings: Lister 427, CASY
[11] = GSK_TCAKS: pIC50 HepG2 human cell line viability assay using luminiscence. […] Seeding density was checked to ensure that new mono-layers were not more than 50% confluent at the time of harvesting. Cell suspension was added to 500 mL of the same medium at a final density of 1.2 * 10^5 cells/mL. This cell suspension was dispensed (25 uL, 3000 cells per well) into 384-well clear-bottom plates using a Multidrop Combi dispenser. Prior to addition of the cell suspension, the screening compounds (250 nL) were pre-dispensed into the plates with an Echo liquid handler. Plates were incubated for 48 h at 37C, 5% CO2. After incubation, plates equilibrated at room temperature for 30 min before proceeding to develop the luminescent signal. The signal developer, CellTiter-Glo Reagent, was allowed to equilibrate at room temperature for 30 min and added to the plates (25uL per well) using a Multidrop Combi dispenser. Plates were left for 10 min at room temperature for stabilization and then read using a ViewLux.; format: toxicity, cell-based
[12] = target: Sterol 14-alpha demethylase (Trypanosoma cruzi (strain CL Brener), UniProt Q7Z1V1); experiment: GSK_TCAKS: pIC50 CYP51 from Trypanosoma cruzi.; format: functional
Chain of Sterol 14-alpha demethylase (Q7Z1V1 whole entry): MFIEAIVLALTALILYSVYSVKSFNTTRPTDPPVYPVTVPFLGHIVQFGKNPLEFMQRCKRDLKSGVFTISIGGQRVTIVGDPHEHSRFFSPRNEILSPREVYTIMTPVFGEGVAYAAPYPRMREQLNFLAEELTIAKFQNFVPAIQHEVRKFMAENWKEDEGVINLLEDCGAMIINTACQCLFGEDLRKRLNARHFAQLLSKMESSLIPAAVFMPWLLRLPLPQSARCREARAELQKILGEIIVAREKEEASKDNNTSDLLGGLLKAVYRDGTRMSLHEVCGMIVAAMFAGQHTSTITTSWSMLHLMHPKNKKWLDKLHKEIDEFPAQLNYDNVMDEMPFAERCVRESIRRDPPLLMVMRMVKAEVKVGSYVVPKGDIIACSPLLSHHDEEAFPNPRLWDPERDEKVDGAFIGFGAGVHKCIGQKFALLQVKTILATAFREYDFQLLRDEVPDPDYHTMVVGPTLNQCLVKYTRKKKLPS

SMILES	IC50 (Trypanosoma cruzi [1]) [µM]	IC50 (Trypanosoma cruzi [2]) [µM]	IC50 (Trypanosoma cruzi [3]) [µM]	IC50 (Trypanosoma cruzi [4]) [µM]	IC50 (Leishmania donovani [5]) [µM]	IC50 (Leishmania donovani [6]) [µM]	IC50 (Leishmania donovani [7]) [µM]	IC50 (Leishmania donovani [8]) [µM]	IC50 [9] [µM]	IC50 [10] [µM]	IC50 at 48 h [11] [µM]	IC50 [12] [µM]
CCOc1ccc(Nc2ccc(S(=O)(=O)N3CCN(C)CC3)cc2[N+](=O)[O-])cc1OCC	7.94	> 50.1	3.16	> 50.1	0.794	7.94	5.01	12.6	6.31	31.6	> 100	31.6
Cc1cc(C)n(-c2nc(NC(C)C)nc(NC(C)(C)C)n2)n1	2.24	1.58	0.501	0.2	3.16	5.01	3.98	6.31	20	12.6	> 100	> 100
O=c1ccc2ccc(F)c3c2n1C[C@H]3CN1CCN(CC(O)c2cc3c(cn2)OCS3)CC1 (some centres not stated)	0.708	0.631	0.316	> 50.1	20	> 50.1	> 50.1	> 50.1	0.2	0.398	> 100	> 100
COc1cc(Cl)c(C)cc1NC(=O)c1ccc([N+](=O)[O-])s1	0.631	0.631	0.501	2.51	7.94	6.31	5.01	> 50.1	0.501	10	31.6	15.8
Cc1cc(NC(=O)c2ccc([N+](=O)[O-])s2)ccc1Br	0.251	0.398	0.251	2.51	3.16	2.51	1.58	15.8	0.316	5.01	39.8	10
CS(=O)(=O)c1ccccc1C(=O)N(Cc1ccccc1)c1ccccc1	50.1	> 50.1	39.8	> 50.1	15.8	> 50.1	15.8	> 50.1	0.398	0.631	> 100	20
Cc1ccc(Nc2nc(N)nc(CNC(c3nc4ccccc4[nH]3)C(C)C)n2)cc1 (configuration not stated)	1	7.94	5.01	> 50.1	3.98	2	1.26	25.1	7.94	5.01	> 100	50.1
O=C(Nc1ccc(S(=O)(=O)N2CCCC2)cc1)c1ccc([N+](=O)[O-])s1	0.2	0.2	0.2	1.58	7.94	1.58	1	> 50.1	0.158	0.2	6.31	> 100
Cc1ccc(-c2csc(NC(=O)C=Cc3ccc(S(=O)(=O)N4CCOCC4)cc3)n2)o1	7.94	10	10	31.6	6.31	5.01	0.794	> 50.1	3.16	5.01	> 100	20
O=C(Nc1nc2cc(Cl)ccc2o1)c1cccc(Cl)c1	0.794	0.794	0.631	2.51	0.398	> 50.1	> 50.1	6.31	0.794	0.794	> 100	> 100
O=C(NCc1ccc(Cl)cc1)C1CN(C(=O)c2ccc(F)cc2)CCS1 (configuration not stated)	25.1	39.8	31.6	> 50.1	> 50.1	> 50.1	> 50.1	> 50.1	0.794	0.631	> 100	12.6

— ChEMBL document CHEMBL3430912, “GSK Tres Cantos Anti-Kinetoplastid Screening (TCAKS) Data”
